What was measured:
GABA autoreceptor [1] = assay: antagonist activity at GABA autoreceptors by blockade of agonist (muscimol)-induced inhibition of potassium-evoked [3H]-GABA release from rat cortex slices in vitro (Procedure 1); assay type: biochemical; conditions: for Antagonism at GABA autoreceptor pA2 values: Procedure 1, agonist muscimol, rat cerebral cortex slices; for IC50: inhibition of the effect of a single concentration of muscimol, read-out: IC50 value (GABA autoreceptor antagonism)
Excerpt: (§1) Advantageously compounds of formula I appear to be selective in that they display little or no activity at GABAA receptors. The following test procedures were used to measure antagonist activity at (a) GABA autoreceptors by blockade of agonist-induced inhibition of potassium-evoked GABA release from rat cortex in vitro (Procedure 1); and (b) GABAA receptors by antagonism of agonist-induced depolarization of the isolated rat vagus nerve (Procedure 2):
Slices (0.25×0.25×2.0 mm) of rat cerebral cortex are prepared using a McIlwain tissue chopper. The slices are incubated in Krebs-Henseleit solution containing [^3 H]-GABA (10^-7 M) in the presence of amino-oxyacetic acid (AOAA) for 20 minutes at 37° C., rinsed with 5ml aliquots of Krebs-Henseleit solution and transferred to 10 superfusion chambers (volume 300μl). The slices are continuously superfused with Krebs-Henseleit solution (0.4 ml min^-1) containing AOAA (10^-5 M) and fractions of the superfusate collected every 4 minutes. Transmitter release is induced by 4 minute exposure to a Krebs-Henseleit solution containing 25 mM potassium ion (with concomitant reduction in sodium to maintain osmolarity) after 68 […] and 92 (S2) minutes of superfusion. The antagonist compound under study is added to the superfusing medium 10 minutes prior to the first potassium stimulation and remains throughout the superfusion. The GABA autoreceptor is activated by adding the agonist muscimol 20 minutes before the second potassium stimulation. The residual radioactivity in the slices at the end of the experiment together with that in the superfusate. fractions is measured by liquid scintillation counting
Calculations: The amount of radioactivity in each fraction is expressed as a percentage of the total radioactivity in the tissue at the start of the respective collection period. The amount of radioactivity released above basal by the increased potassium is calculated and the ratio S2/S1 obtained. The S2/S1 ratio from muscimol-treated slices is expressed as a percentage of the control drug-free S2/S1 ratio. A dose-response curve for the agonist muscimol is constructed and the effect of antagonists is measured by their ability to displace this dose-response curve to the right. From this measurement a pA2 value can be calculated. Alternatively, an IC50 value for antagonists can be calculated by inhibiting the effect of a single concentration of muscimol with increasing concentrations of antagonist.

GABAA receptor [2] = assay: antagonism at GABAA receptors: antagonism of GABA-induced depolarization of the isolated rat vagus nerve (Procedure 2); assay type: biochemical
Excerpt: as §1
Male Sprague-Dawley rats (250-400g) are killed by a blow to the head and cervical dislocation. The cervical vagus nerves are transferred into Krebs' solution at room temperature and the connective tissue sheath removed. The vagus nerves are placed in two-compartment Perspex baths to permit extracellular recording of agonist induced depolarizations. Each nerve projects from one compartment to the next by way of a grease filled slot, the grease serving to insulate the compartments from each other. […] One compartment is continuously perfused (5ml min^-1) with Krebs' solution at 27° C. to which agonist and antagonist drugs are added. […] Non-cumulative concentration-response curves to GABA (10^-6 to 3×10^-4 M) are obtained using a 5 min contact time and 10-20 min wash period and the effect of the test antagonist compound is measured by its ability to shift this concentration-response curve to the right.

GABA autoreceptor [3] = conditions: previously shown; cited from earlier work
[4] = known; cited from earlier work
GABAA receptor [5] = conditions: non-selective; cited from earlier work

Row | Molecule | Antagonism at GABA autoreceptor pA2 values (GABA autoreceptor [1]) | IC50 (GABA autoreceptor [1]) [µM] | also measured
1 | c1csc(C2NCCc3ccccc32)c1 (racemic) [E, 1,2,3,4-Tetrahydro-1-(2-thienyl)isoquinoline] | 8.4 | – | –
2 | COc1cc2c(cc1OC)[C@H]([C@@H]1CCCO1)NCC2 (relative stereo) [A, 1RS,2'SR-1-(2-Tetrahydrofuranyl)-1,2,3,4-tetrahydro-6,7 dimethoxyisoquinoline] | 7.0 | – | Antagonism at GABAA receptors (GABAA receptor [2]; at 10^-4 M): inactive
3 | COc1cc2c(cc1OC)[C@H]([C@H]1CCCO1)NCC2 (relative stereo) [B, 1RS,2'RS-1-(2-Tetrahydrofuranyl) -1,2,3,4- Tetrahydro-6,7-dimethoxyisoquinoline] | 5.2 | – | –
4 | c1ccc2c(c1)CCN[C@H]2[C@@H]1CCCO1 (relative stereo) [Compound C, 1RS, 2'SR-1-(2-Tetrahydrofuranyl)-1,2,3,4-tetrahydroisoquinoline] | 8.5 | – | –
5 | CN1CCc2ccccc2[C@@H]1[C@@H]1CCCO1 (relative stereo) [Compound D, 1RS, 2'SR-1-(2-Tetrahydrofuranyl)-2-methyl-1,2,3,4-tetrahydroisoquinoline] | 9.2 | – | Antagonism at GABAA receptors (GABAA receptor [2]; at 10^-5 M): inactive
6 | c1ccc2c(c1)CCN[C@H]2[C@@H]1CCCO1 (single isomer, unassigned) [(+) isomer of Compound C] | – | 8.6 | –
7 | CN1CCc2ccccc2[C@@H]1[C@@H]1CCCO1 (single isomer, unassigned) [(+) isomer of Compound D, (+)1R*,2'S*-1-(2-tetrahydrofuranyl)-2-methyl-1,2,3,4-tetrahydroisoquinoline] | – | 0.0027 | –
8 | c1ccc2c(c1)CCN[C@H]2[C@@H]1CCCO1 (single isomer, unassigned) [(-) enantiomer of Compound C] | – | 0.02 | –
9 | CN1CCc2ccccc2[C@@H]1[C@@H]1CCCO1 (single isomer, unassigned) [(-) isomer of Compound D, (-) 1R*,2'S*-1-(2-tetrahydrofuranyl)-2-methyl-1,2,3,4-tetrahydroisoquinoline] | – | 0.26 | –
10 | Oc1ccc(C2NCCc3cc(O)c(O)cc32)cc1 (stereo not drawn) [Example 12, 1-(4-Hydroxyphenyl)-6,7-dihydroxy-1,2,3,4-tetrahydroisoquinoline] | – | 0.48 | –
11 | CN1CCc2cc3c(cc2[C@H]1[C@@H]1OC(=O)c2c1ccc1c2OCO1)OCO3 [bicuculline] | – | – | activity at GABA autoreceptor (GABA autoreceptor [3]): antagonists at the GABA autoreceptor; convulsant action [4]: known convulsants; activity at GABAA receptor (GABAA receptor [5]): also active at the GABAA receptor
12 | picrotoxin | – | – | activity at GABA autoreceptor (GABA autoreceptor [3]): antagonists at the GABA autoreceptor; convulsant action [4]: known convulsants; activity at GABAA receptor (GABAA receptor [5]): also active at the GABAA receptor

Reference: patent publication US5118690A, “Pharmaceutical tetrahydroisoquinolines” (John Wyeth & Brother Limited, priority 1989, dated 1992)
